Data published in paper doi:10.1101/2024.03.08.584059, “AllTheBacteria: a community resource empowers biology and discovers novel peptide antibiotics” (bioRxiv, 2026).
Values after ≈ are worked out from the molar mass of the structure shown. Ends that are not written are not given here.

Assays:
[1] = test system: A. baumannii ATCC 19606; assay: microbe, parasite or virus in culture; conditions: Acinetobacter baumannii, ATCC19606, 24 h, read-out: Minimal Inhibitory Concentration, A. baumannii ATCC 19606 (-)
Procedure: (§1) Figure 4. […] Briefly, 10[5] bacterial cells were incubated with serially diluted peptides (0–64 μmol L^−1) at 37 °C. Bacterial growth was assessed by measuring the optical density at 600 nm in a microplate reader one day post-treatment.

[2] = test system: A. baumannii ATCC BAA-1605; assay: microbe, parasite or virus in culture; conditions: Acinetobacter baumannii, ATCCBAA1605, 24 h, read-out: Minimal Inhibitory Concentration, A. baumannii ATCC BAA-1605 (-) - CGTPACCIMRA
Procedure: as §1

[3] = test system: E. cloacae ATCC 13047; assay: microbe, parasite or virus in culture; conditions: Enterobacter cloacae, ATCC13047, 24 h, read-out: Minimal Inhibitory Concentration, E. cloacae ATCC 13047 (-)
Procedure: as §1

[4] = test system: E. coli ATCC 11775; assay: microbe, parasite or virus in culture; conditions: Escherichia coli, ATCC11775, 24 h, read-out: Minimal Inhibitory Concentration, E. coli ATCC 11775 (-)
Procedure: as §1

[5] = test system: E. coli ATCC BAA-3170; assay: microbe, parasite or virus in culture; conditions: Escherichia coli, ATCCBAA3170, 24 h, read-out: Minimal Inhibitory Concentration, E. coli ATCC BAA-3170 (-) - CRE
Procedure: as §1

[6] = test system: E. coli K-12 BW25113; assay: microbe, parasite or virus in culture; conditions: Escherichia coli, BW25113, 24 h, read-out: Minimal Inhibitory Concentration, E. coli K-12 BW25113 (-)
Procedure: as §1

[7] = test system: K. pneumoniae ATCC 13883; assay: microbe, parasite or virus in culture; conditions: Klebsiella pneumoniae, ATCC13883, 24 h, read-out: Minimal Inhibitory Concentration, K. pneumoniae ATCC 13883 (-)
Procedure: as §1

[8] = test system: K. pneumoniae ATCC BAA-2342; assay: microbe, parasite or virus in culture; conditions: Klebsiella pneumoniae, ATCCBAA2342, 24 h, read-out: Minimal Inhibitory Concentration, K. pneumoniae ATCC BAA-2342 (-) - EIRK
Procedure: as §1

[9] = test system: P. aeruginosa PA14; assay: microbe, parasite or virus in culture; conditions: Pseudomonas aeruginosa, PA14, 24 h, read-out: Minimal Inhibitory Concentration, P. aeruginosa PA14 (-)
Procedure: as §1

[10] = test system: P. aeruginosa PAO1; assay: microbe, parasite or virus in culture; conditions: Pseudomonas aeruginosa, PAO1, 24 h, read-out: Minimal Inhibitory Concentration, P. aeruginosa PAO1 (-)
Procedure: as §1

[11] = test system: S. aureus ATCC 12600; assay: microbe, parasite or virus in culture; conditions: Staphylococcus aureus, ATCC12600, 24 h, read-out: Minimal Inhibitory Concentration, S. aureus ATCC 12600 (+)
Procedure: as §1

[12] = test system: S. aureus ATCC BAA-1556 (MRSA); assay: microbe, parasite or virus in culture; conditions: Staphylococcus aureus, ATCCBAA1556|MRSA, 24 h, read-out: Minimal Inhibitory Concentration, S. aureus ATCC BAA-1556 - MRSA (+)
Procedure: as §1

[13] = test system: S. enterica ATCC 9150; assay: microbe, parasite or virus in culture; conditions: Salmonella enterica, ATCC9150, 24 h, read-out: Minimal Inhibitory Concentration, S. enterica ATCC 9150 (-)
Procedure: as §1

[14] = test system: S. enterica Typhimurium ATCC 700720; assay: microbe, parasite or virus in culture; conditions: Salmonella enterica, ATCC700720|TYPHIMURIUM, 24 h, read-out: Minimal Inhibitory Concentration, S. enterica Typhimurium ATCC 700720
Procedure: as §1

[15] = test system: E. coli AIC221; assay: MIC, broth microdilution; format: cell-based; conditions: Escherichia coli, AIC221, 24 h, read-out: Minimal Inhibitory Concentration, E. coli AIC221 (-)
Procedure: Figure 4. Antimicrobial activity of APEX-predicted AllTheBacteria peptides. Heat map displaying the antimicrobial activities (μmol L^−1) of ATB peptides (rows) against 20 clinically relevant pathogens (columns) , including antibiotic-resistant strains. Briefly, 10[5] bacterial cells were incubated with serially diluted peptides (0–64 μmol L^−1) at 37 °C. Bacterial growth was assessed by measuring the optical density at 600 nm in a microplate reader one day post-treatment.

[16] = test system: E. coli AIC222; assay: microbe, parasite or virus in culture; format: cell-based; conditions: Escherichia coli, AIC222, 24 h, read-out: Minimal Inhibitory Concentration, E. coli AIC222 - CRE (-)
Procedure: as §1

[17] = test system: B. subtilis ATCC 23857; assay: MIC, broth microdilution; format: cell-based; conditions: Bacillus subtilis, ATCC23857, 24 h, Fig. 4 heat map, LB, 0–64 μmol L^−1, 37 °C, one day, OD600, mode of replicates, read-out: Minimal Inhibitory Concentration, B. subtilis ATCC 23857 (+)
Procedure: as §1

[18] = test system: E. faecalis ATCC 700802 (VRE); assay: MIC, broth microdilution; format: cell-based; conditions: Enterococcus faecalis, 24 h, Fig. 4 heat map, vancomycin-resistant, LB, 0–64 μmol L^−1, 37 °C, one day, OD600, mode of replicates, read-out: Minimal Inhibitory Concentration, E. faecalis ATCC 700802 - VRE (+)
Procedure: as §1

[19] = test system: 20 clinically relevant Gram-negative and Gram-positive bacterial strains; assay: Antibacterial profiling across the panel; format: cell-based; conditions: in words; 20-strain MIC panel
From the text: We first compared the predicted AllTheBacteria (here abbreviated ATB) peptides with antimicrobial peptides curated in widely used databases (see Supp. Note 3, Supp. Figs 10-13). ATB peptides were enriched in basic residues, particularly lysine and arginine, and many also contained hydrophobic or aromatic residues, including leucine, isoleucine, and tryptophan. These features are consistent with electrostatic engagement of bacterial envelopes and potential membrane interaction. From this prioritized pool, we selected 24 peptides (Supp. Table 1) for chemical synthesis and experimental validation. The selected panel included highly cationic low-complexity sequences, mixed hydrophobic–cationic architectures and tryptophan-rich motifs, allowing us to test whether distinct classes of ATB-derived encrypted peptides translate into antibacterial activity. The 24 synthesized peptides were profiled against 20 clinically relevant Gram-negative and Gram-positive bacterial strains, including antibiotic-resistant ones (Fig. 4). Antibacterial activity was most pronounced against Gram-negative species, including Acinetobacter baumannii, Escherichia coli, Enterobacter cloacae, Klebsiella pneumoniae, and Pseudomonas aeruginosa.
Figure 4. […] Bacterial growth was assessed by measuring the optical density at 600 nm in a microplate reader one day post-treatment.

[20] = test system: human embryonic kidney (HEK293T) cells; conditions: 24 h
Procedure: The cells were cultured in high-glucose Dulbecco’s modified Eagle’s medium supplemented with 1% penicillin and streptomycin (antibiotics) and 10% fetal bovine serum and grown at 37 °C in a humidified atmosphere containing 5% CO2.
One day prior to the experiment, 100 μL aliquots of human embryonic kidney (HEK293T) cells, at a concentration of 50,000 cells per mL, were seeded into each well of 96-well plates (5,000 cells per well). Following cell attachment, the HEK293T cells were treated with increasing concentrations of peptides (ranging from 8 to 128 μmol L^−1) and incubated for 24 h. After the exposure period, cytotoxicity was assessed using the 3-(4,5-dimethylthiazol-2-yl)-2,5-diphenyltetrazolium bromide (MTT) assay. Specifically, the MTT reagent was prepared at a concentration of 0.5 mg mL^−1 in phenol red-free medium and used to replace the peptide-containing supernatants (100 μL per well). The plates were then incubated for 4 h at 37 °C in a humidified atmosphere with 5% CO2, facilitating the formation of insoluble formazan crystals. These crystals were subsequently dissolved in 0.04 mol L^−1 hydrochloric acid prepared in anhydrous isopropanol. Absorbance was measured at 570 nm using a spectrophotometer to quantify cell viability. All experiments were conducted in triplicate (three biological replicates).
To evaluate the safety profile of the ATB peptides, we measured their cytotoxicity against human embryonic kidney (HEK293T) cells using a 3-(4,5-dimethylthiazol-2-yl)-2,5-diphenyltetrazolium bromide (MTT) viability assay and determined half-maximal cytotoxic concentrations (CC50). […]
index as the ratio CC50 (HEK293T) / MIC against A. baumannii ATCC 19606.

[21] = test system: E. coli isolates; conditions: strain not named
Procedure: as §1

[22] = test system: A. baumannii ATCC 19606; assay: Skin abscess infection mouse model; format: in vivo, Acinetobacter baumannii; conditions: CD-1 mice; for reduction of bacterial burden relative to untreated controls: single topical dose at 10×MIC
Procedure: (§2) Figure 5. Anti-infective activity of a lead ATB peptide in a murine infection model. […] The limit of detection (LOD) for the CFU quantification is log10 CFU = 2. Bacterial burdens are shown as violin plots with individual data points overlaid; each point represents one animal. The horizontal line within each violin indicates the mean, and violin width reflects the distribution of values within each group. Statistical comparisons were performed separately for each time point using ordinary one-way ANOVA followed by Dunnett’s two-sided multiple comparisons test versus the control group. Exact p-values are shown above the indicated comparisons. (Panel a created in BioRender.)
(§3) The back of six-week-old female CD-1 mice under anesthesia were shaved and injured with a superficial linear skin abrasion made with a needle. An aliquot of A. baumannii ATCC 19606 (1.1×10^6 CFU mL^−1; […]) previously grown in LB medium until 0.5 OD mL^−1 (optical value at 600 nm) and then washed twice with sterile PBS (pH 7.4, 9,391 ģ for 3 min) was added to the scratched area. […] Two- and four-days post-infection, animals were euthanized, and a uniform excision of the scarified skin was excised, homogenized using a bead beater (25 Hz for 20 min), 10-fold serially diluted, and plated on McConkey agar plates for CFU quantification. The experiments were performed using six mice per group. Mice were single-housed to avoid cross-contamination and maintained under a 12-hour light/dark cycle at 22 °C with humidity controlled at 50%. The skin abscess infection mouse model was revised and approved by the University Laboratory Animal Resources (ULAR) from the University of Pennsylvania (Protocol 806763).
In the mouse experiments, all the raw data were log10 transformed and the statistical significance was determined using one-way ANOVA followed by Dunnett’s test. All the p values are shown for each of the groups, all groups were compared to the untreated control group. […] Statistical significance between different groups was calculated using the tests indicated in each figure legend. […]

[23] = Mouse weight monitoring in skin abscess model; format: in vivo; conditions: CD-1 mice, 4 days total, single topical dose at 10×MIC, in words
Procedure: as §2
as §3, with “Mice were single-housed to avoid cross-contamination and maintained under a 12-hour light/dark cycle at 22 °C with humidity controlled at 50%. The skin abscess infection mouse model was revised and approved by the University Laboratory Animal Resources (ULAR) from the University of Pennsylvania (Protocol 806763).” left out

Molecule: C[C@H]1COc2c(N3CCN(C)CC3)c(F)cc3c(=O)c(C(=O)O)cn1c23 [Levofloxacin]
- MIC [1]: 0.3 µM (≈ 0.108 µg/mL)
- MIC [2]: 64 µM (≈ 23.1 µg/mL)
- MIC [3]: 0.1 µM (≈ 0.0361 µg/mL)
- MIC [4]: 0.1 µM (≈ 0.0361 µg/mL)
- MIC [5]: 0.1 µM (≈ 0.0361 µg/mL)
- MIC [6]: 0.1 µM (≈ 0.0361 µg/mL)
- MIC [7]: 0.1 µM (≈ 0.0361 µg/mL)
- MIC [8]: 0.1 µM (≈ 0.0361 µg/mL)
- MIC [9]: 0.5 µM (≈ 0.181 µg/mL)
- MIC [10]: 4 µM (≈ 1.45 µg/mL)
- MIC [11]: 4 µM (≈ 1.45 µg/mL)
- MIC [12]: 4 µM (≈ 1.45 µg/mL)
- MIC [13]: 0.1 µM (≈ 0.0361 µg/mL)
- MIC [14]: 0.5 µM (≈ 0.181 µg/mL)
- MIC [15]: 0.1 µM (≈ 0.0361 µg/mL)
- MIC [16]: 0.1 µM (≈ 0.0361 µg/mL)
- MIC [17]: 0.1 µM (≈ 0.0361 µg/mL)
- MIC [18]: 1 µM (≈ 0.361 µg/mL)

Molecule: MKKLKIKKLKIKKLKIKKLKIKNLKIKKLKIKNLKI-OH [ATB15]
- antibacterial activity across the panel [19]: limited measurable activity
- half-maximal cytotoxic concentration (CC50) [20]: 9 to 12 µM

Molecule: MRRRGWKVRLKRRRGWKVRLMRRRGWKVRLKRRRLVLPVWA-OH [ATB9]
- MIC, E. coli [21]: 4 µM

Molecule: MKLWKIVRFLALSKGAKALRKKPVRKAAASFVKSYALWKYIRRK-OH [ATB20]
- time for which proliferation of the infection was inhibited after treatment ([22]; single dose at 10xMIC post-infection, compared to untreated control): up to 4 days
- reduction of bacterial burden relative to untreated controls ([22]; day 4, n = 6): ~ 1.5 log
- reduction of bacterial burden relative to untreated controls ([22]; two days after infection, n = 6): ~ 2 log
- mouse body weight [23]: remained stable
